In patent US7405228B2, “Antibacterial cyano-(substituted)-methylenepiperidinophenyl oxazolidinones targeting multiple ribonucleoprotein sites” (Wockhardt Limited, priority 2002, dated 2008):
Converted amounts (≈) assume the structure as drawn.

What was measured:
SPN 49619 = experiment: MIC determination, linezolid sensitive SPN 49619; format: cell-based; conditions: Streptococcus pneumoniae; linezolid sensitive strain, Table 3
E. faecium 367 LNZR = experiment: MIC determination, linezolid resistant E. faecium 367 LNZR; format: cell-based; conditions: Enterococcus faecium, read-out: MIC E. faecium 367 LNZR
Description: E. faecium ATCC 19434 strain at a cell density of 10^6/ml was inoculated in Mueller Hinton broth medium containing Linezolid at a concentration of 5 and 7.5 mcg/ml. The stationary culture was incubated at 37° C. and inspected at every 24 hours to assess the formation of turbidity due to the onset of bacterial growth. […] A 50 microliter sample of turbid flask was plated on Mueller Hinton agar medium incorporated with linezolid at 7.5 mcg/ml. The agar plates were incubated for 48 hours at 37° C. for the formation of discrete colonies of linezolid-resistant strain of E. faecium (E. faecium 367 LNZR). MICs of resistant mutant E. faecium 367 LNZR and parent strain E. faecium ATCC 19434 were determined for linezolid by NCCLS method.
(§1) Cultures were further diluted 1:10 in Mueller Hinton broth. Using Denley's mutipoint inoculator, 10^4 cells were deposited on Mueller Hinton agar (Difco) containing range of 2 fold dilutions of test compounds. […] MIC is defined as minimum drug concentration that inhibits test organisms. For determining MIC of test compounds against Streptococcus pneumoniae, Mueller Hinton agar containing 5% sheep blood was employed.

MRSA 032 = experiment: MIC determination, linezolid sensitive MRSA 032 (MRSA-32); format: cell-based; conditions: Staphylococcus aureus, read-out: MIC MRSA 32
Description: (§2) Infecting doses of organisms given by intraperitoneal route in 5% hog gastric mucin were 10^3-10^4 CFU (colony forming units)/animal for SPN 6303 and 10^8 CFU/animal for MRSA-32. In case of MRSA-32, Linezolid was administered by oral route, 1 and 4 h post infection, BID (twice a day) for 1 day and for SPN 6303 BID for 2 days. […] MICs of Methicillin Resistant Staphylococcus aureus-32 Linezolid resistant (MRSA-32 LNZR), S. pneumoniae 744 Linezolid resistant (SPN 744 LNZR) and parent Linezolid sensitive strains MRSA-32 and SPN 6303 were determined for Linezolid by NCCLS agar dilution method.
as §1

SPN 744 LNZR = experiment: MIC determination, linezolid resistant SPN 744 LNZR; format: cell-based; conditions: Streptococcus pneumoniae, read-out: MIC SPN744 LNZR
Description: as §2, §1

S. aureus MRSA-32 LNZR = experiment: MIC determination, linezolid resistant S. aureus MRSA-32 LNZR; format: cell-based; conditions: Staphylococcus aureus, 24 h, read-out: MIC MRSA 32 LNZR
Description: as §2, §1

CC(=O)NC[C@H]1CN(c2ccc(N3CC/C(=C\C#N)C(F)C3)c(F)c2)C(=O)O1 (stereo partly drawn) [56 (E), E-(S)-N-{3-[4-(4-cyanomethylidene-3-fluoropiperidin-1-yl)-3-fluorophenyl]-2-oxo-oxazolidin-5-ylmethyl}-acetamide]
MIC (SPN 49619): 0.8 µg/mL (≈ 2.05 µM)
MIC (E. faecium 367 LNZR): 6.25 µg/mL (≈ 16 µM)
MIC (MRSA 032): 0.8 µg/mL (≈ 2.05 µM)
MIC (SPN 744 LNZR): 6.25 µg/mL (≈ 16 µM)
MIC (S. aureus MRSA-32 LNZR): 12.5 µg/mL (≈ 32 µM)

CC(=S)NC[C@H]1CN(c2ccc(N3CCC(=CC#N)CC3)c(F)c2)C(=O)O1 [Example 45, (S)-N-{3-[4-(4-cyanomethylidene-piperidin-1-yl)-3-fluorophenyl]-2-oxo-oxazolidin-5-ylmethyl}-thioacetamide]
MIC (SPN 49619): 0.2 µg/mL (≈ 0.515 µM)
MIC (MRSA 032): 0.2 µg/mL (≈ 0.515 µM)
MIC (SPN 744 LNZR): 3.12 µg/mL (≈ 8.03 µM)
MIC (S. aureus MRSA-32 LNZR): 3.12 µg/mL (≈ 8.03 µM)

N#C/C=C1\CCN(c2ccc(N3C[C@H](CNC(=O)C(F)F)OC3=O)cc2F)CC1F (stereo partly drawn) [Example 57, (S)-N-{3-[4-(4-cyanomethylidene-3-fluoropiperidin-1-yl)-3-fluorophenyl]-2-oxo-oxazolidin-5-ylmethyl}-difluoroacetamide]
MIC (E. faecium 367 LNZR): 6.25 µg/mL (≈ 14.7 µM)
MIC (SPN 744 LNZR): 6.25 µg/mL (≈ 14.7 µM)
MIC (S. aureus MRSA-32 LNZR): 12.5 µg/mL (≈ 29.3 µM)

CC(C#N)=C1CCN(c2ccc(N3C[C@H](CNC(=O)C(F)F)OC3=O)cc2F)CC1 [Example 77, (S)-N-{3-[4-(4-(1-cyanoethylidene)-piperidin-1-yl)-3-fluorophenyl]-2-oxo-oxazolidin-5-ylmethyl}-difluoroacetamide]
MIC (E. faecium 367 LNZR): 6.25 µg/mL (≈ 14.8 µM)
MIC (SPN 744 LNZR): 6.25 µg/mL (≈ 14.8 µM)
MIC (S. aureus MRSA-32 LNZR): 12.5 µg/mL (≈ 29.6 µM)

CC(C#N)=C1CCN(c2ccc(N3C[C@H](CNC(=O)C(Cl)Cl)OC3=O)cc2F)CC1 [Example 79, (S)-N-{3-[4-(4-(1-cyanoethylidene)-piperidin-1-yl)-3-fluorophenyl]-2-oxo-oxazolidin-5-ylmethyl}-dichloroacetamide]
MIC (SPN 49619): 0.8 µg/mL (≈ 1.76 µM)
MIC (MRSA 032): 0.8 µg/mL (≈ 1.76 µM)

CCC(C#N)=C1CCN(c2ccc(N3C[C@H](CNC(C)=O)OC3=O)cc2F)CC1 [Example 89, (S)-N-{3-[4-(4-(1-cyanopropylidene)-piperidin-1-yl)-3-fluorophenyl]-2-oxo-oxazolidin-5-ylmethyl}-acetamide]
MIC (E. faecium 367 LNZR): 6.25 µg/mL (≈ 15.6 µM)
MIC (SPN 744 LNZR): 12.5 µg/mL (≈ 31.2 µM)
MIC (S. aureus MRSA-32 LNZR): 25 µg/mL (≈ 62.4 µM)

CC(=O)NC[C@H]1CN(c2ccc(N3CCC(=C(C#N)c4cccs4)CC3)c(F)c2)C(=O)O1 [Example 105, (S)-N-{3-[4-(4-(1-cyano-1-(thiophen-2-yl)-methylidene)-piperidin-1-yl)-3-fluorophenyl]-2-oxo-oxazolidin-5-ylmethyl}-acetamide]
MIC (SPN 49619): 0.8 µg/mL (≈ 1.76 µM)
MIC (MRSA 032): 0.8 µg/mL (≈ 1.76 µM)

CC(=S)NC[C@H]1CN(c2ccc(N3CCC(=C(C#N)c4ccccn4)CC3)c(F)c2)C(=O)O1 [Example 118, (S)-N-{3-[4-(4-(1-cyano-1-(pyridin-2-yl)-methylidene)-piperidin-1-yl)-3-fluorophen]-2-oxo-oxazolidin-5-ylmethyl}-thioacetamide]
MIC (SPN 49619): 0.4 µg/mL (≈ 0.859 µM)
MIC (MRSA 032): 0.8 µg/mL (≈ 1.72 µM)

CC(=S)NC[C@H]1CN(c2ccc(N3CCC(=C(C#N)C#N)CC3)c(F)c2)C(=O)O1 [Example 119, (S)-N-{3-[4-(4-(1,1-dicyano-methylidene)-piperidin-1-yl)-3-fluorophenyl]-2-oxo-oxazolidin-5-ylmethyl}-thioacetamide]
MIC (SPN 49619): 0.8 µg/mL (≈ 1.93 µM)
MIC (MRSA 032): 0.4 µg/mL (≈ 0.967 µM)

CC(=S)NC[C@H]1CN(c2ccc(N3CCC(=C(C#N)C(=S)N4CCOCC4)CC3)c(F)c2)C(=O)O1 [Example 121, (S)-N-{3-[4-(4-(1-cyano-1-(morpholin-1-yl-thiocarbonyl)-methylidene)-piperidin-1-yl)-3-fluorophenyl]-2-oxo-oxazolidin-5-ylmethyl}-thioacetamide]
MIC (SPN 49619): 0.2 µg/mL (≈ 0.386 µM)
MIC (MRSA 032): 0.4 µg/mL (≈ 0.773 µM)
MIC (SPN 744 LNZR): 1.56 µg/mL (≈ 3.01 µM)
MIC (S. aureus MRSA-32 LNZR): 6.25 µg/mL (≈ 12.1 µM)

N#CCC1CCN(c2ccc(N3C[C@H](CO)OC3=O)cc2)CC1 [Example 124, (R)-{3-[4-(4-cyanomethyl-piperidin-1-yl)-phenyl]-2-oxo-oxazolidin-5-ylmethyl}-alcohol]
melting point: 110 to 112 °C

CS(=O)(=O)OC[C@H]1CN(c2ccc(N3CCC(CC#N)CC3)cc2)C(=O)O1 [Example 125, (R)-{3-[4-(4-cyanomethyl-piperidin-1-yl)-phenyl]-2-oxo-oxazolidin-5-ylmethyl}-methanesulphonate]
melting point: 114 to 116 °C

CC(=O)NC[C@H]1CN(c2ccc(N3CCC(C(C#N)COS(C)(=O)=O)CC3)c(F)c2)C(=O)O1 (stereo partly drawn) [Example 134, (S)-N-{3-[4-(4-(1-cyano-2-methanesulphonyloxy)-ethylpiperidin-1-yl)-3-fluorophenyl]-2-oxo-oxazolidin-5-ylmethyl}-acetamide]
melting point: 136 to 138 °C

CC(=O)NC[C@H]1CN(c2ccc(N3CCC(C(C#N)n4ccnc4)CC3)c(F)c2)C(=O)O1 (stereo partly drawn) [Example 136, (S)-N-{3-[4-(4-(1-cyano-1-(imidazol-1-yl))-methylpiperidin-1-yl)-3-fluorophenyl]-2-oxo-oxazolidin-5-ylmethyl}-acetamide]
melting point: 210 to 212 °C

COC(=O)c1cn(C[C@H]2CN(c3ccc(N4CCC(C(C#N)CO)CC4)c(F)c3)C(=O)O2)nn1 (stereo partly drawn) [Example 150, (S)-1-{3-[4-(4-(1-cyano-2-hydroxy)-ethylpiperidin-1-yl)-3-fluorophenyl]-2-oxo-oxazolidin-5-ylmethyl}-4-methoxycarbonyl-1,2,3-triazole]
melting point: 204 to 206 °C

CCOC(=O)c1cn(C[C@H]2CN(c3ccc(N4CCC(C(C#N)CO)CC4)c(F)c3)C(=O)O2)nn1 (stereo partly drawn) [Example 151, (S)-1-{3-[4-(4-(1-cyano-2-hydroxy)-ethylpiperidin-1-yl)-3-fluorophenyl]-2-oxo-oxazolidin-5-ylmethyl}-4-ethoxycarbonyl-1,2,3-triazole]
melting point: 170 to 172 °C

CCOC(=O)c1cnnn1C[C@H]1CN(c2ccc(N3CCC(C(C#N)CO)CC3)c(F)c2)C(=O)O1 (stereo partly drawn) [Example 152, (S)-1-{3-[4-(4-(1-cyano-2-hydroxy)-ethylpiperidin-1-yl)-3-fluorophenyl]-2-oxo-oxazolidin-5-ylmethyl}-5-ethoxycarbonyl-1,2,3-triazole]
melting point: 76 to 78 °C

N#CC(CO)C1CCN(c2ccc(N3C[C@H](COc4ccon4)OC3=O)cc2F)CC1 (stereo partly drawn) [Example 153, (R)-3-{3-[4-(4-(1-cyano-2-hydroxy)-ethylpiperidin-1-yl)-3-fluorophenyl]-2-oxo-oxazolidin-5-ylmethyloxy}-iso-oxazole]
melting point: 146 to 148 °C

CS(=O)(=O)OC[C@H]1CN(c2ccc(N3CCC(C(C#N)CO)CC3)c(F)c2)C(=O)O1 (stereo partly drawn) [Example 154, (R)-{3-[4-(4-(1-cyano-2-hydroxy)-ethylpiperidin-1-yl)-3-fluorophenyl]-2-oxo-oxazolidin-5-ylmethyl}-methanesulphonate]
melting point: 144 to 146 °C

CS(=O)(=O)OC[C@H]1CN(c2ccc(N3CCC(C(C#N)C(=O)O)CC3)c(F)c2)C(=O)O1 (stereo partly drawn) [Example 155, (R)-{3-[4-(4-(1-Cyano-1-hydroxycarbonyl)-methylpiperidin-1-yl)-3-fluorophenyl]-2-oxo-oxazolidin-5-ylmethyl}-methanesulphonate]
melting point: 108 to 110 °C

CS(=O)(=O)OC[C@H]1CN(c2ccc(N3CCC(C(C#N)c4nccs4)CC3)c(F)c2)C(=O)O1 (stereo partly drawn) [Example 157, (R)-{3-[4-(4-(1-cyano-1-(1,3-thiazol-2-yl))-methylpiperidin-1-yl)-3-fluorophenyl]-2-oxo-oxazolidin-5-ylmethyl}-methanesulphonate]
melting point: 64 to 66 °C

CS(=O)(=O)OC[C@H]1CN(c2ccc(N3CCC(C(C#N)C(N)=O)CC3)c(F)c2)C(=O)O1 (stereo partly drawn) [Example 158, (R)-{3-[4-(4-(1-cyano-1-carboxamido)-methylpiperidin-1-yl)-3-fluorophenyl]-2-oxo-oxazolidin-5-ylmethyl}-methanesulphonate]
melting point: 220 to 222 °C

CC(=O)NC[C@H]1CN(c2ccc(N3CC=C(CC#N)C(C)C3)c(F)c2)C(=O)O1 (stereo partly drawn) [Example 161, (S)-N-{3-[4-(4-cyanomethyl-3-methyl-4,5-dehydropiperidin-1-yl)-3-fluorophenyl]-2-oxo-oxazolidin-5-ylmethyl}-acetamide]
melting point: 149 to 150 °C

CC(C)COC(=O)NC[C@H]1CN(c2ccc(N3CC=C(CC#N)C(F)C3)c(F)c2)C(=O)O1 (stereo partly drawn) [Example 163, (S)-N-{3-[4-(4-cyanomethyl-3-fluoro-4,5-dehydropiperidin-1-yl)-3-fluorophenyl]-2-oxo-oxazolidin-5-ylmethyl}-isobutylcarbamate]
melting point: 146 to 148 °C
